Test [1] in a line: Food intake test (food-deprived rats). It is filed as in vivo, Male Sprague-Dawley derived rats. On the procedure:
(§1) Male Sprague-Dawley derived rats, Charles River Breeders (Portage, MI), weighing between 200-400 grams at the time of testing, were employed in the food intake studies and water intake studies. The rats were housed individually and kept on a 12 hour light-dark light cycle. The room temperature ranged between 23°-25° C.
The rats employed in food intake testing were food deprived on the day preceding testing and were divided into experimental groups that were matched on the basis of average daily food intake and body weight. At approximately 24 hours post-deprivation, the rats were administered a test sample containing as the active ingredient a compound of the present invention. All test samples employed herein were prepared and homogenized in a vehicle of normal saline (to which a few drops of PG/Tween 80 was added). The test samples were administered at an injection volume of 2 ml./kg, unless otherwise stated. Thirty minutes following administration of the test samples, pre-weighed food jars, containing ground meal, were placed in the rats' cages. (Prior to testing the rats were given ground meal for a minimum of 3 days to familiarize the rats with this food.) After 1, 2 and 6 hours of food access, the jars were removed, weighed and returned to the rats' cages providing a 1, 2 and 6 hour intake measurement. The results obtained are represented in Table I. A student t test was used for making statistical comparisons, and the p-values are based upon two-tailed comparisons. The compound employed as the active ingredient of the test sample is indicated by the example number which describes its preparation.

A short description of test [2]: Water intake test (water-deprived rats). It is filed as in vivo, Male Sprague-Dawley derived rats. The conditions noted are these: for Water Intake as a % of Control, 15 m: 15 minutes; for Water Intake as a % of Control, 30 m: 30 minutes; for Water Intake as a % of Control, 45 m: 45 minutes; for Water Intake as a % of Control, 60 m: 60 minutes; for Water Intake as a % of Control, 120 m: 120 minutes. On the procedure: as §1
The rats employed in water intake testing were water deprived for 1 day and then maintained on a restricted water schedule. Water was available for two hours on the first day post water deprivation and for 1 hour each day afterwards for a minimum of 1 week. Using drinking tubes (50 ml. graduated cylinders), water intake was measured for at least 3 consecutive days prior to testing. On the day preceding testing, rats were divided into different experimental groups that were matched on the basis of avg. 0-15 min. water intake and body weight. On the day of testing, a test sample, containing as the active ingredient the compound prepared in Example 2, was administered. […] Food was removed from the animal at the start of the drinking test. A student t test was used for making statistical comparisons, and the p-values are based upon two-tailed comparisons.

Setting [3] is: 32.0 mg/kg i.g., injection volume 3.0 ml./kg.
[4] abbreviates: 75.0 mg/kg i.g., injection volume 3.0 ml./kg.

SMILES strings stand for the structures.

Turning to `CCCC(=O)OCn1cc2c(c(-c3ccc(Cl)cc3)c1=O)Nc1ccccc1S2` [Example 2, 4-(4-chlorophenyl)-2-[(1-oxobutoxy)methyl]-5H-pyrido[3,4-b][1,4]benzothiazin-3-(2H)-one], the “Food Intake % of control, 1 Hr.” value in test [1] (1.0 mg/kg i.p.) is reported as 87.9 % of control; in test [1] (3.2 mg/kg i.p.), 57.6 % of control; in test [1] (10.0 mg/kg i.g.) it was 85.7 % of control; in test [1] (10.0 mg/kg i.p.), 39.4 % of control; in test [1] (32.0 mg/kg i.g.), 57.1 % of control; in test [1] (32.0 mg/kg i.p.), 30.3 % of control. In addition, the “Food Intake % of control, 2 Hr.” value in test [1] (1.0 mg/kg i.p.) is recorded as 90.9 % of control; in test [1] (3.2 mg/kg i.p.), 76.6 % of control; in test [1] (10.0 mg/kg i.g.), 93.6 % of control; in test [1] (10.0 mg/kg i.p.), 61.0 % of control; in test [1] (32.0 mg/kg i.g.), 74.4 % of control; in test [1] (32.0 mg/kg i.p.), 40.3 % of control. For the same compound, the “Food Intake % of control, 6 Hr.” value is listed as 100.0 % of control in test [1] (1.0 mg/kg i.p.); 91.0 % of control in test [1] (3.2 mg/kg i.p.); 92.5 % of control in test [1] (10.0 mg/kg i.g.); 88.1 % of control in test [1] (10.0 mg/kg i.p.); 87.9 % of control in test [1] (32.0 mg/kg i.g.); 70.3 % of control in test [1] (32.0 mg/kg i.p.). Moreover, the “oral appetite suppressant activity” value in test [1] is listed as “possess oral appetite suppressant activity”. In addition, the “Water Intake as a % of Control, 15 m” value in test [2] (10.0 mg/kg i.g.) was 96.4 % of Control; in test [2] (18.0 mg/kg i.g.), 89.2 % of Control; in test [2] (32.0 mg/kg i.g.) it was 64.9 % of Control. Besides, the “Water Intake as a % of Control, 30 m” value in test [2] (10.0 mg/kg i.g.) is recorded as 98.3 % of Control; in test [2] (18.0 mg/kg i.g.), 89.1 % of Control; in test [2] (32.0 mg/kg i.g.) it was 69.7 % of Control. For the same compound, the “Water Intake as a % of Control, 45 m” value in test [2] (10.0 mg/kg i.g.) is recorded as 99.2 % of Control; in test [2] (18.0 mg/kg i.g.) it was 88.6 % of Control; in test [2] (32.0 mg/kg i.g.) it was 70.7 % of Control. Moreover, the “Water Intake as a % of Control, 60 m” value was 100.0 % of Control in test [2] (10.0 mg/kg i.g.), 92.0 % of Control in test [2] (18.0 mg/kg i.g.) and 75.2 % of Control in test [2] (32.0 mg/kg i.g.). Moreover, the figures for the “Water Intake as a % of Control, 120 m” value in test [2] (10.0 mg/kg i.g.), in test [2] (18.0 mg/kg i.g.) and in test [2] (32.0 mg/kg i.g.) were 103.7 % of Control, 94.8 % of Control and 79.3 % of Control, respectively.
In the case of `O=c1c(-c2ccc(Cl)cc2)c2c(cn1CO)Sc1ccccc1N2` [Example 1, 4-(4-chlorophenyl)-2-(hydroxymethyl)-5H-pyrido[3,4-b][1,4]benzothiazin-3(2H)-one], in test [1] (10.0 mg/kg i.g.), the “Food Intake % of control, 1 Hr.” value is 109.8 % of control; the “Food Intake % of control, 2 Hr.” value is listed as 104.5 % of control; the “Food Intake % of control, 6 Hr.” value was 92.1 % of control. In test [1] (32.0 mg/kg i.g.), the “Food Intake % of control, 1 Hr.” value is listed as 90.2 % of control; the “Food Intake % of control, 2 Hr.” value is recorded as 86.6 % of control; the “Food Intake % of control, 6 Hr.” value was 86.5 % of control. Moreover, in test [1], the “oral appetite suppressant activity” value is “possess oral appetite suppressant activity”.
In the case of `O=c1c(-c2ccc(Cl)cc2)c2c(cn1CO)Sc1ccc(Cl)cc1N2` [Example 5, 7-chloro-4-(4-chlorophenyl)-2-(hydroxymethyl)-5H-pyrido[3,4-b][1,4]benzothiazin-3(2H)-one], in test [1] (75.0 mg/kg i.g.), the “Food Intake % of control, 1 Hr.” value is recorded as 89.9 % of control; the “Food Intake % of control, 2 Hr.” value is recorded as 96.1 % of control; the “Food Intake % of control, 6 Hr.” value is recorded as 83.1 % of control.
On to `CCCCC(=O)OCn1cc2c(c(-c3ccc(Cl)cc3)c1=O)Nc1ccccc1S2` [Example 3, 4-(4-chlorophenyl)-2-[(1-oxopentoxy)methyl]-5H-pyrido[3,4-b][1,4]benzothiazin-3(2H)-one], for which, in test [1] (setting [3]), the “Food Intake % of control, 1 Hr.” value was 83.3 % of control; the “Food Intake % of control, 2 Hr.” value was 100.0 % of control; the “Food Intake % of control, 6 Hr.” value is on record as 111.5 % of control. Also, in test [1] (setting [4]), the “Food Intake % of control, 1 Hr.” value was 68.5 % of control; the “Food Intake % of control, 2 Hr.” value was 96.8 % of control; the “Food Intake % of control, 6 Hr.” value is on record as 102.6 % of control. For the same compound, the “oral appetite suppressant activity” value in test [1] is “possess oral appetite suppressant activity”.
For `CC(C)(C)C(=O)OCn1cc2c(c(-c3ccc(Cl)cc3)c1=O)Nc1ccccc1S2` [Example 9, 4-(4-chlorophenyl)-2-[(2,2-dimethyl-1-oxopropoxy)methyl]-5H-pyrido[3,4-b][1,4]benzothiazin-3(2H)-one], in test [1] (10.0 mg/kg i.g.), the “Food Intake % of control, 1 Hr.” value is on record as 111.1 % of control; the “Food Intake % of control, 2 Hr.” value was 102.6 % of control; the “Food Intake % of control, 6 Hr.” value is on record as 96.3 % of control. Further, in test [1] (32.0 mg/kg i.g.), the “Food Intake % of control, 1 Hr.” value was 111.1 % of control; the “Food Intake % of control, 2 Hr.” value was 106.4 % of control; the “Food Intake % of control, 6 Hr.” value is 92.5 % of control.

The record behind these values is patent US4500708A, “Benzothiazine derivatives” (G. D. Serle & Co., priority 1984, dated 1985).
